What was measured:
rat brain homogenate = assay: Formation of lipid peroxide through the autoxidation of rat brain homogenate (TBA method); type: biochemical; conditions: for Amount of MDA: 37° C. 30 min, mean ± standard deviation (n = 3); for Rate of Suppression: suppression of lipid peroxide formation
Procedure: The present compound was examined for the effect on the formation of lipid peroxide through the autoxidation of a rat brain homogenate.
Wistars rat (purchased from SLC Japan (Kabushiki Kaisha)) were decapitated without anesthesia and the skull was immediately opened and the brain removed. The brain taken out was washed with ice-cooled, phoshate buffered saline (PBS (50 mM, pH 7.4)), lightly blotted with filter paper and weighed. Four times ice-cooled PBS was added to the brain and homogenized in ice. The homogenate was centrifuged at 1000×g (2700 rpm) for 10 min at 0° C. The supernate thus obtained was used for the test. To 100 μl of the test compound were added 700 μl of PBS and 200 μl of the supernate of the brain homogenate, and incubated at 37° C. for 30 min. A control group and a blank group were incubated with PBS, with the blank group at 0° C. for 30 min. Then, 200 μl of 35% perchloric acid was added to cease the reaction and the mixture was centrifuged at 1300×g (3200 rpm) for 10 min at 0° C. Using the supernate as a sample, the amount of malondialdehyde (MDA) formed was determined by thiobarbituric acid colorimetric method (TBA method).
To 0.11 g (0.5 mmol) of 1,1,3,3-tetraethoxypropane was added methanol to make 50 ml of volume. This solution was diluted 10^3, 3×10^3 and 10^4-folds with methanol and used as the standards (10 μM, 3 μM, 1 μM). Methanol was assigned to 0 μM.
To 1 ml of each of the samples or the standards were added 0.2 ml of 8.1% sodium dodecylsulfate (SDS), 1.5 ml of 20% acetate buffer (pH 3.5) and 0.8% thbiobarbituric acid (TBA) and incubated in a boiling water bath for 60 min. After ice-cooling to cease the reaction, 4 ml of butanol-pyridine (15:1) was added and mixed well. After centrifugation at 1200×g (3000 rpm) for 10 min, the fluorescence intensity of the butanol-pyridine layer was measured at the wavelength of 553 nm with the excitation wavelength of 515 nm.
The rate of suppression of lipid peroxide formation was calculated according to the following equation for each test compound.
Rate of suppression of lipid peroxide formation (%)=[1-(C-A/B-A)]×100
A: Amount (μM) of formed MDA for the blank group
B: Amount (μM) of formed MDA for the control group
C: Amount (μM) of formed MDA for a test compound group

[1] = system: acetaminophen-induced hepatopathy; assay: Effect on acetaminophen-induced hepatopathy in mice; type: in vivo; conditions: male ddy mice
Procedure: The present compound was examined for the effect on acetaminophen-induced hepatopathy in mice.
The compound of Example 2 (abbreviated to ETS-GS-Na) 0.1 mmol/ 10 ml/kg, i.p.
7-week old male ddy mice purchased from SLC Japan (Kabushiki Kaisha) were used for the test following a 24-hour fasting.
Hepatopathy was induced by oral administration of 250 mg/10 ml/kg acetaminophen (dissolved by warming).
24 hours after the oral administration of acetaminophen, blood were sampled for measurement of GOP and GPT activities, indices of hepatopathy. The mice were kept on fasting for 48 hours until the blood sampling was made.
The test compound was intraperitoneally injected 30 min before the administration of acetaminophen.

[2] = system: buthionine sulfoximine (BSO)-induced cataract; assay: Effect on BSO-induced cataract in rats; type: in vivo; conditions: newborn SD rats
Procedure: The present compound was examined for the effect on buthionine sulfoximine (BSO)-induced cataract in rats.
The compound of Example 2 (abbreviated to ETS-GS-Na) 0.1 mmol/10 ml/kg, i.p.
The test was performed according to the method of Maitra et al.
Indrani Maitra, Elena Serbinova et al., α-Lipoic Acid Prevents Buthionine Sulfoximine-induced Cataract Formation in Newborn Rats Free Radical Biology & Medicine, Vol. 18, No. 4, pp.823-829, 1995.
28 to 36-hour old SD rats purchased from SLC Japan (Kabushiki Kaisha) were used for the test.
Cataract was induced by subcutaneously administering 3 mmol/kg of BSO at 8:00 A.M. and 4:00 P.M. for 2 days.
Observation of cataract was performed using a slit lamp microscope after the newborn rats opened their eyes after the BSO administration. The opacity of each of the lenses was assessed and classified into one of the following 0-5 grades.
0: a clear lens without opacity
1: a lens with opacities in part of the equatorial region
2: a lens with opacities along the equatorial region
3: a lens with opacities in part of the cortex
4: a lens with opacities in the whole cortex
5: a lens with opacities advancing up to the central region.
The test compound was intraperitoneally administered 4 and 12 hours after the administration of BSO.

[3] = 0.1 mmol/10 ml/kg i.p. 30 min before acetaminophen 250 mg/kg p.o., blood 24 hours after acetaminophen

Row | Compound | Amount of MDA (rat brain homogenate; 3 × 10^−5M) [µM] | Rate of Suppression (rat brain homogenate; 3 × 10^−5M) | Amount of MDA (rat brain homogenate; 3 × 10^−6M) [µM] | Rate of Suppression (rat brain homogenate; 3 × 10^−6M) | Amount of MDA (rat brain homogenate; 10^−5M) [µM] | Rate of Suppression (rat brain homogenate; 10^−5M) | Amount of MDA (rat brain homogenate; 10^−6M) [µM] | Rate of Suppression (rat brain homogenate; 10^−6M) | effect on acetaminophen-induced hepatopathy ([1]; 0.1 mmol/10 ml/kg i.p.) | blood GOT activity [1, 3] [IU/1] | blood GPT activity [1, 3] [IU/1] | suppression of BSO-induced cataract ([2]; 0.1 mmol/10 ml/kg i.p.) | average grade of lens opacity ([2]; BSO 3 mmol/kg s.c., 0.1 mmol/10 ml/kg i.p. 4 and 12 hours after BSO, slit lamp, grades 0-5)
1 | Cc1c(C)c2c(c(C)c1OC(=O)C(CC(=O)O)SC[C@H](NC(=O)CC[C@H](N)C(=O)O)C(=O)NCC(=O)O)CCC(C)(CCCC(C)CCCC(C)CCCC(C)C)O2 (stereo partly drawn) [Example 1, S-[2-Carboxy-1-(α-tocopheryl-6-yl-oxycarbonyl)Ethyl]glutathione] | 0.838 ± 0.056 | 93.94 ^*3% | 4.079 ± 0.126 | 40.17 ^*3% | 1.338 ± 0.039 | 85.64 ^*3% | 5.208 ± 0.083 | 21.43 ^*2% | – | – | – | – | –
2 | Cc1c(C)c2c(c(C)c1OC(=O)C(CC(=O)NCCS(=O)(=O)O)SC[C@H](NC(=O)CC[C@H](N)C(=O)O)C(=O)NCC(=O)O)CCC(C)(CCCC(C)CCCC(C)CCCC(C)C)O2 (stereo partly drawn) [Example 2, S-[2-(N-Carbonylaminoethylsulfonic acid)-1-(α-tocopheryl-6-yl-oxycarbonyl)ethyl]glutathione] | – | – | – | – | – | – | – | – | significant suppressing effect | 336±89 | 47±22 | complete suppression | 0
3 | S-[2-(N-Carbonylaminoethylsulfonic acid)-1-(α-tocopheryl-6-yl-oxycarbonyl)ethyl]cysteine [Example 5] | 0.980 ± 0.249 | 91.59 ^*3% | 4.890 ± 0.052 | 26.71 ^*2% | 4.090 ± 0.348 | 39.98 ^*2% | 5.022 ± 0.060 | 24.52 ^*2% | – | – | – | – | –
